Drawing on patent US8394829B2, “Bi-functional quinoline analogs” (Gilead Sciences, Inc., priority 2010, dated 2013), this text covers IC50 and EC50 for ten compounds.

For test [1], the target named is T1, human recombinant beta-2 adrenoreceptors (Homo sapiens, UniProt P07550).
T1 construct: expressed in transfected cells; host or cells: CHO cells
Kind of test: Beta-2 adrenoceptor binding assay ([3H](−)CGP-12177 displacement). Conditions: CHO cells expressing human beta-2 adrenoreceptors, [3H](−)CGP-12177 0.3 nM, 120 min. The procedure: Beta-2 Adrenoceptor Binding Assay
Test compounds were incubated for 120 min with Chinese hamster oocyte (CHO) cells expressing the human recombinant beta-2 adrenoreceptors. Binding of test compounds to the beta-2 adrenoreceptors was determined by measuring the displacement of the radiolabeled ligand [^3H](−)CGP-12177 (0.3 nM) from the receptor measured by a scintillation counting. Concentration response curves were generated for test compounds and the IC50 (molar concentration of the compound which produced 50% inhibition for the maximal response for that compound) was determined. These assays were performed using a protocol based on the original description of the assay by Joseph et al., (2004) Naun.-Sch. Arch. Pharm.; 369:525-532.
IC50 determinations for the compounds presented above are seen in the second column of Table 1 (Beta 2 IC50).

Test [2] deals with LPS-induced TNF-α release from human peripheral blood mononuclear cells (PBMC). Kind of test: Inhibition of LPS-induced TNF-α release from human PBMC. The class given is cell-based. As to conditions: LPS 0.4 ng/mL, 6 h, presence or absence of ICI-118551 not given. From the text:
Inhibition of Lipopolysaccharide (LPS)-Induced Tumour Necrosis Factor Alpha (TNF-α) Release from Human Peripheral Blood Mononuclear Cells (PBMC)
Human whole blood was drawn from donors and cell purification initiated within two hours. Peripheral blood mononuclear cells (PBMC) were purified using a standard Ficoll gradient purification technique and aliquoted at a concentration of 100,000 cells/well in 96 well plates. Beta-2 adrenoreceptor agonists are also anti-inflammatory for some immune cells expressing the receptor and in this assay they can inhibit tumor necrosis factor-alpha (TNF-α) production. Therefore PBMC were pre-incubated for 30 min in the presence of the beta-2 adrenoreceptor antagonist ICI-118551 [3-(isopropylamino)-1-[(7-methyl-4-indanyl)oxy]butan-2-ol] (10 μM) to determine the PDE4 directed activity of test compounds, and in the absence of ICI-118551 for the combined PDE4 and beta-2 receptor directed activity. Test compounds were dissolved in DMSO and diluted in buffer (final DMSO concentration of 0.1% v/v) and were then added to the cell suspensions and pre-incubated for a further 1 h at 37° C. LPS solution was then added (0.4 ng/mL) and the cells incubated for a further 6 h. At the end of the incubation period the cell supernatants were collected and TNF-α was measured using a Procarta Cytokine Assay Kit (Affymetrix, Santa Clara, Calif.) according to the manufacturers' instructions. Data were analyzed using MiraiBio Masterplex QT v4.0 software (MasterPlex Version 1.0.1.18 Copyright 2008, Hitachi Software Engineering Co., Ltd) and used to extrapolate Mean Fluorescence Intensity (MFI) into concentrations of TNF-α and mean values from replicate wells were determined. Inhibition curves were plotted using a nonlinear curve fit employing a single-site binding model to determine the IC50 value for each test compound in the presence or absence of ICI-118551 using GraphPad Prism 5 for Windows, version 5.02 (GraphPad Software, San Diego Calif.).
EC50 determinations for the compounds presented above are seen in the fourth column of Table 1 (PBMC TNF EC50).

For test [3], the target named is T1, human recombinant beta-2 adrenoreceptors. The test can be described thus: Functional agonism of human recombinant beta-2 adrenoreceptors expressed in CHO cells (cAMP HTRF). The class given is cell-based. As to conditions: CHO cells expressing human beta-2 adrenoreceptors, cAMP elevation, 30 min. The procedure:
Functional Agonism of Human Recombinant Beta-2 Adrenoreceptors Expressed in Chinese Hamster Oocytes (CHO)
Test compounds were incubated for 30 min with CHO cells expressing the human recombinant beta-2 adrenoreceptors. Agonism of the receptor was measured by the elevation of intracellular cyclic-AMP over control levels detected using a homogeneous time resolved fluorescence (HTRF) format. Compounds were determined to be “full” or “partial” agonists based on the maximum level of cAMP accumulated compared to the control compound isoproterenol which is a full agonist in this assay system. Concentration response curves were generated for test compounds and the EC50 (molar concentration of the agonist which produced 50% of the maximal response for that compound) was determined. These assays were performed using a protocol based on the original description of the assay by Baker, J. G. (2005) Brit. J. Pharmacol.; 144:317-322.
EC50 determinations for the compounds presented above are seen in the third column of Table 1 (Beta 2 EC50).
(In general: In TR-FRET formats the signal depends on donor and acceptor labels being close together.)

The target of the next test is T2, Human recombinant PDE4B2 (Homo sapiens, UniProt Q07343).
T2 construct: purchased BPS Bioscience
Kind of test: Inhibition of PDE4B4 enzyme activity (PDE Glo Assay). Conditions: human recombinant PDE4B2, 50 nM cAMP; read-out: PDE4 IC50. The class given is biochemical. On the procedure: Biological Examples Inhibition of PDE4B4 Enzyme Activity
The inhibitory activity of test compounds were determined using the PDE Glo Assay (Promega, V1361). The PDE-Glo Reaction Buffer was prepared (1 mL 5× buffer+4 mL water) and 150 nM solution of test compound dissolved in the Reaction Buffer, followed by 1:3 serial dilutions into Reaction Buffer. […] Human recombinant PDE4B2 (BPS Bioscience) was added to test compound in Reaction Buffer at a concentration of 0.12 nM per reaction. The enzyme and test compound were pre-incubated together at rt for 10 min. 50 nM of the enzyme substrate cAMP was then added to initiate the enzyme reaction, with the reaction terminated after one hour. Termination Buffer (1 mL 5× termination buffer+3.9 mL water+100 μL of 100 mM IBMX (ICN Chemicals, in DMSO)), was added to each reaction well to terminate the reaction. Detection Buffer (1 mL 5×PDE-Glo Detection buffer+3.96 mL water+40 μL PKA (supplied in kit)) was added to the cAMP-enzyme-test compound mix and this secondary reaction proceeded for 20 minutes at rt. An equal volume of Kinase Glo Reagent was then added to the reaction mixture and after 10 min luminescence was measured using a luminometer (EnVision, 0.1 sec read for luminescence). Luminescence values were […] related to levels of cAMP in the reaction mixture. Data were plotted as relative light units (RLU) versus test compound concentration and the IC50 determined using GraphPad Prism 5.0, using a nonlinear curve fit in a single-site binding model.
IC50 determinations for the compounds presented above are seen in the first column of Table 1 (PDE4IC50).

T2 sequence (Q07343 1-564 isoform Q07343-2): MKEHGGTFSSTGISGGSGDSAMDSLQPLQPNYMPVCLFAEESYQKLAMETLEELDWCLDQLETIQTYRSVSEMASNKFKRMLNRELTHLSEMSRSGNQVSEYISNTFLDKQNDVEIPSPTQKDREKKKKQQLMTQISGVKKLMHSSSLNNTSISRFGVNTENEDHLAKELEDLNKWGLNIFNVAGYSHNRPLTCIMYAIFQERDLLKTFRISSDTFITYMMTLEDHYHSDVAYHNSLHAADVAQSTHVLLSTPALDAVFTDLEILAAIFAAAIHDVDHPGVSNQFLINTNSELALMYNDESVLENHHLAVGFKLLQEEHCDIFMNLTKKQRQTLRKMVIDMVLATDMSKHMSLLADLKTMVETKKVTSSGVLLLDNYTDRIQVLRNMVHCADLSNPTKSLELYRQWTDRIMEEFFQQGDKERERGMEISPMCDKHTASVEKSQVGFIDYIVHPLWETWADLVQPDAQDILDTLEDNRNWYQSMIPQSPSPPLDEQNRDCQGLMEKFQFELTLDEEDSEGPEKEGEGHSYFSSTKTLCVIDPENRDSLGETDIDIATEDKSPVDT
T1 sequence (P07550 whole entry): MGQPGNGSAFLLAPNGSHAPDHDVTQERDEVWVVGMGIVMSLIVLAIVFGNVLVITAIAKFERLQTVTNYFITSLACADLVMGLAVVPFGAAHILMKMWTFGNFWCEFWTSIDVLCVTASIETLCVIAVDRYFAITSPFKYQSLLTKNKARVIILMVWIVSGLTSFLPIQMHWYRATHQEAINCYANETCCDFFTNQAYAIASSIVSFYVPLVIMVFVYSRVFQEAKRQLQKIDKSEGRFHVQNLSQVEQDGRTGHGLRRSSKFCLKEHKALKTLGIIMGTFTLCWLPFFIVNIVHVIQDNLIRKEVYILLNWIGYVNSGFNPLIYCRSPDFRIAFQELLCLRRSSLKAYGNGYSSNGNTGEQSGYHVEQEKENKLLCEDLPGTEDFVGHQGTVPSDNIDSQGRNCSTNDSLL

The IC50 is the concentration that gives 50% inhibition. What is called EC50 is the concentration that produces a half-maximal response. On to `COc1cccc(Nc2c(C(N)=O)cnc3c(C)cc(S(=O)(=O)c4cccc(C(=O)NCCCCCCCCNC[C@H](O)c5ccc(O)c6[nH]c(=O)ccc56)c4)cc23)c1` [Example 1, (R)-6-[[3-[[8-[[2-Hydroxy-2-(8-hydroxy-2-oxo-1,2-dihydroquinolin-5-yl)ethyl]amino]octyl]carbamoyl]phenyl]sulfonyl]-4-[(3-methoxyphenyl)amino]-8-methylquinoline-3-carboxamide], for which the IC50 (in test [1]; at Human recombinant PDE4B2) was under 100 nM throughout. Besides, the EC50 in test [2] and in test [3] was under 100 nM each time.
For `COc1cccc(Nc2c(C(N)=O)cnc3c(C)cc(S(=O)(=O)c4cccc(C(=O)NCCCCCCNC[C@H](O)c5ccc(O)c6[nH]c(=O)ccc56)c4)cc23)c1` [Example 2, (R)-6-[[3-[[6-[[2-Hydroxy-2-(8-hydroxy-2-oxo-1,2-dihydroquinolin-5-yl)ethyl]amino]hexyl]carbamoyl]phenyl]sulfonyl]-4-((3-methoxyphenyl)amino]-8-methylquinoline-3-carboxamide], the IC50 (in test [1]; on Human recombinant PDE4B2) was under 100 nM in each case. Besides, the EC50 in test [2] and in test [3] was under 100 nM each time.
For the compound `COc1cccc(Nc2c(C(N)=O)cnc3c(C)cc(S(=O)(=O)c4cccc(C(=O)N5CCC(NC[C@H](O)c6ccc(O)c7[nH]c(=O)ccc67)CC5)c4)cc23)c1` [Example 3, (R)-6-[[3-[[4-[[2-Hydroxy-2-(8-hydroxy-2-oxo-1,2-dihydroquinolin-5-yl)ethyl]amino]piperidine-1-yl]carbonyl)phenyl]sulfonyl]-4-[(3-methoxyphenyl)amino]-8-methylquinoline-3-carboxamide], the IC50 is over 300 nM in test [1] and under 100 nM on Human recombinant PDE4B2. The EC50 in test [2] and in test [3] was under 100 nM each time.
Turning to `COc1cccc(Nc2c(C(N)=O)cnc3c(C)cc(S(=O)(=O)c4cccc(C(=O)Nc5ccc(C#CCCCCNC[C@H](O)c6ccc(O)c7[nH]c(=O)ccc67)cc5)c4)cc23)c1` [Example 7, (R)-6-((3-((4-(6-((2-hydroxy-2-(8-hydroxy-2-oxo-1,2-dihydroquinolin-5-yl)ethyl)amino)hex-1-yn-1-yl)phenyl)carbamoyl)phenyl)sulfonyl)-4-((3-methoxyphenyl)amino)-8-methylquinoline-3-carboxamide], the IC50 (in test [1]; on Human recombinant PDE4B2) was under 100 nM each time. For the same compound, the EC50 in test [2] and in test [3] was under 100 nM each time.
Take `COc1cccc(Nc2c(C(N)=O)cnc3c(C)cc(S(=O)(=O)c4cccc(C(=O)Nc5ccc(C#CCCCN(C)C[C@H](O)c6ccc(O)c7[nH]c(=O)ccc67)cc5)c4)cc23)c1` [Example 8, (R)-6-((3-((4-(5-((2-hydroxy-2-(8-hydroxy-2-oxo-1,2-dihydroquinolin-5-yl)ethyl)(methyl)amino)pent-1-yn-1-yl)phenyl)carbamoyl)phenyl)sulfonyl)-4-((3-methoxyphenyl)amino)-8-methylquinoline-3-carboxamide]: the IC50 in test [1] was over 300 nM; on Human recombinant PDE4B2, under 100 nM. Also, the EC50 is under 100 nM in test [2] and over 300 nM in test [3].
As for `COc1cccc(Nc2c(C(N)=O)cnc3c(C)cc(S(=O)(=O)c4cccc(C(=O)Nc5cccc(C#CCCCNC[C@H](O)c6ccc(O)c7[nH]c(=O)ccc67)c5)c4)cc23)c1` [Example 9, (R)-6-((3-((3-(5-((2-hydroxy-2-(8-hydroxy-2-oxo-1,2-dihydroquinolin-5-yl)ethyl)amino)pent-1-yn-1-yl)phenyl)carbamoyl)phenyl)sulfonyl)-4-((3-methoxyphenyl)amino)-8-methylquinoline-3-carboxamide], the IC50 (in test [1]; on Human recombinant PDE4B2) was under 100 nM throughout. For the same compound, the EC50 in test [2] and in test [3] was under 100 nM in each case.
Take `COc1cccc(Nc2c(C(N)=O)cnc3c(C)cc(S(=O)(=O)c4cccc(C(=O)Nc5ccc(CCCCCNC[C@H](O)c6ccc(O)c7[nH]c(=O)ccc67)cc5)c4)cc23)c1` [Example 10, (R)-6-[[3-[[4-[5-[[2-Hydroxy-2-(8-hydroxy-2-oxo-1,2-dihydroquinolin-5-yl)ethyl]amino]pentyl]phenyl]carbamoyl]phenyl]sulfonyl]-4-[(3-methoxyphenyl)amino]-8-methylquinoline-3-carboxamide 2,2,2-trifluoroacetate]: the IC50 (in test [1]; at Human recombinant PDE4B2) was under 100 nM in each case. In addition, the EC50 in test [2] and in test [3] was under 100 nM in each case.
As to `COc1cccc(Nc2c(C(N)=O)cnc3c(C)cc(S(=O)(=O)c4cccc(C(=O)Nc5ccc(C#CCCCNC[C@H](O)c6ccc(O)c7c6OCC(=O)N7)cc5C)c4)cc23)c1` [Example 35, (R)-6-((3-((4-(5-((2-hydroxy-2-(5-hydroxy-3-oxo-3,4-dihydro-2H-benzo[b][1,4]oxazin-8-yl)ethyl)amino)pent-1-yn-1-yl)-2-methylphenyl)carbamoyl)phenyl)sulfonyl)-4-((3-methoxyphenyl)amino)-8-methylquinoline-3-carboxamide], the IC50 in test [1] was under 100 nM. The EC50 in test [2] and in test [3] was under 100 nM in each case.
For `COc1cccc(Nc2c(C(N)=O)cnc3c(C)cc(S(=O)(=O)c4cccc(C(=O)N5CCC(NC[C@H](O)c6ccc(O)c(CO)c6)CC5)c4)cc23)c1` [Example 42, (R)-6-[[3-[[4-[[2-Hydroxy-2-[4-hydroxy-3-(hydroxymethyl)phenyl]ethyl]amino]piperidine-1-yl]carbonyl]phenyl]sulfonyl]-4-[(3-methoxyphenyl)amino]-8-methylquinoline-3-carboxamide], the IC50 is under 300 nM in test [1] and under 100 nM on Human recombinant PDE4B2. In addition, the EC50 in test [2] is under 100 nM.
On to `COc1cccc(Nc2c(C(N)=O)cnc3c(C)cc(S(=O)(=O)c4ccc(-c5ccc(CCCCCNC[C@H](O)c6ccc(O)c7c6OCC(=O)N7)cc5)cc4)cc23)c1` [Example 51, (R)-6-((4′-(5-((2-hydroxy-2-(5-hydroxy-3-oxo-3,4-dihydro-2H-benzo[b][1,4]oxazin-8-yl)ethyl)amino)pentyl)-[1,1′-biphenyl]-4-yl)sulfonyl)-4-((3-methoxyphenyl)amino)-8-methylquinoline-3-carboxamide], for which the IC50 in test [1] was under 100 nM. For the same compound, the EC50 in test [2] and in test [3] was under 100 nM in each case.
